“And” between values parts separate entries of the source, which are not always exact repeats. Identical values can stand only once.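 Assay format: 96-well plates, 48-hour exposure. Here, GI50 denotes the concentration required for 50% inhibition of growth. TGI: total growth inhibition.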
How the values were obtained:
Test in all cases: NCI anticancer screen, dose series, 48 h
[1] = tested on: NCI-H460 lung
[2] = tested on: UACC-62 melanoma
[3] = tested on: IGROV1 ovarian
[4] = tested on: SW-620 colon
[5] = tested on: KM12 colon
[6] = tested on: SF-539 CNS
[7] = tested on: U251 CNS
[8] = tested on: T-47D breast
[9] = tested on: HOP-92 NSCLC
[10] = tested on: RPMI-8226 leukemia

Row | Structure (SMILES) | GI50 [1] [µM] | TGI [1] [µM] | GI50 [2] [µM] | TGI [2] | GI50 [3] [µM] | TGI [3] | GI50 [4] [µM] | TGI [4] | GI50 [5] [µM] | TGI [5] [µM] | GI50 [6] [µM] | TGI [6] | GI50 [7] [µM] | TGI [7] [µM] | GI50 [8] [µM] | TGI [8] [µM] | GI50 [9] [µM] | TGI [9] | GI50 [10] [µM] | TGI [10]
1 | COc1ccc(C(=O)OC2C(OC3C(O)COC(O[C@H]4C[C@H]5[C@@H]6CC=C7C[C@@H](O)CC[C@]7(C)[C@H]6CC[C@]5(C)[C@H]4[C@H](C)C(=O)CCC(C)C)C3OC(N)=O)OCC(O)C2O)cc1 (stereo not given in full) | 0.0142 | 0.496 | 0.00978 | 0.04 µM | 0.0282 | 3.69 µM | 0.0183 | 0.429 µM | 0.175 | 4.37 | < 0.003 | 0.0685 µM | < 0.003 | 3.32 | 0.0501 | 2.02 | 0.0686 | 1.2 µM | < 0.003 | 0.00997 µM
2 | C=C1C(=O)O[C@H]2[C@H]1CC/C(COC(=O)NCc1ccc(Cn3c(=O)sn(CCCl)c3=O)cc1)=C\CC[C@@]1(C)O[C@@H]21 | 15 | 32.5 | 1.86 | 3.95 µM | 2.5 | 6.79 µM | 1.17 | 2.69 µM | 13.4 | 27.7 | 1.82 | 3.26 µM | 6.79 | 20.2 | 1.97 | 5.16 | 1.5 | 3.22 µM | 2.37 | 6.25 µM
3 | CC(C)[C@H](N)C(=O)N1CCC[C@H]1B(O)O | > 100 | > 100 | > 100 | > 100 µM | > 100 | > 100 µM | > 100 | > 100 µM | > 100 | > 100 | > 100 | > 100 µM | > 100 | > 100 | > 100 | > 100 | > 100 | > 100 µM | > 100 | > 100 µM
4 | COc1cc(CSc2nc3ccc(C)cc3c(=O)n2-c2ccccc2)cc(OC)c1OC | 2.3 | > 100 | 1.93 | > 100 µM | 3.36 | > 100 µM | 0.91 | > 100 µM | 0.99 | > 100 | 2.08 | 9.52 µM | 3.77 | > 100 | 1.56 | > 100 | 1.03 | 8.74 µM | 3.28 | > 100 µM
5 | Cc1ccc(Nc2n[nH]c(=S)s2)cc1C |  | > 100 |  | > 100 µM |  | > 100 µM |  | > 100 µM |  | > 100 |  | > 100 µM |  | > 100 |  | > 100 |  | > 100 µM |  | > 100 µM
6 | COc1ccc2c(c1)c(=O)oc1cc(OC/C(C)=N\O)ccc12 | > 100 | > 100 | 75.5 | > 100 µM | > 100 | > 100 µM | > 100 | > 100 µM | > 100 | > 100 | 59.5 | > 100 µM | 33.4 | > 100 | > 100 | > 100 | 69.5 | > 100 µM | > 100 | > 100 µM
7 | C=C1CCC2C3(C)COC(c4ccc(N(C)C)cc4)OC3CCC2(C)C1C/C=C1/C(=O)OCC1O (stereo not given) | 4.1 | 16.5 | 4.26 | 16.9 µM | 2.44 | 6.02 µM | 1.95 | 4.25 µM | 2.62 | 7.58 | 8.07 | 20.5 µM | 2.1 | 5.21 | 6.91 | 26.3 | 6.4 | 21.7 µM | 1.23 | 3.8 µM
8 | O=[N+]([O-])O.[Cu+2].[NH-]CC[NH-].[NH-]CC[NH-] | > 10 | > 10 | > 10 | > 10 µM | > 10 | > 10 µM | > 10 | > 10 µM | > 10 | > 10 | > 10 | > 10 µM | > 10 | > 10 | > 10 | > 10 | > 10 | > 10 µM | > 10 | > 10 µM
9 | c1ccc2[nH]c(-c3ccc(-c4nccc5c4[nH]c4ccccc45)cc3)nc2c1 | 3.03 | 9.79 | 1.6 | 3.49 µM | 4.73 | 22.4 µM | 2.79 | 8.48 µM | 3.59 | 15.7 | 1.89 | 3.68 µM | 2.74 | 7.83 | 2.02 | 6.19 | 2.06 | 5.79 µM | 2.48 | 5.61 µM
10 | Cc1c(C(N)=O)sc2c1C(=O)N(Cc1ccccc1)C1=NN=C(c3ccc(Cl)cc3)CN12 | 2.13 | 7.69 | 2.23 | 5.9 µM | 3.13 | 22.3 µM | 3.99 | 18.4 µM | 4.07 | 16.6 | 3.39 | 11 µM | 2.39 | 13.2 | 3.82 | 16.4 | 3.89 | 14.7 µM | 4.56 | > 100 µM
11 | CN(C)CCN1C(=O)c2ccccc2N(C)c2ccccc21 | > 100 | > 100 | > 100 | > 100 µM | > 100 | > 100 µM | > 100 | > 100 µM | > 100 | > 100 | > 100 | > 100 µM | > 100 | > 100 | > 100 | > 100 | > 100 | > 100 µM | > 100 | > 100 µM
12 | COc1ccc(C2=CC(c3ccc4c(c3)OCO4)c3c(c4ccccc4oc3=O)O2)cc1OC (stereo not given) |  | > 100 |  | > 100 µM |  | > 100 µM |  | > 100 µM |  | > 100 |  | > 22.5 µM |  | > 100 |  | > 100 |  | > 100 µM |  | > 65.3 µM
13 | O=C(O)CNC(=O)c1ccc(-c2ccccc2)cc1 |  | > 100 |  | > 100 µM |  | > 100 µM |  | > 100 µM |  | > 100 |  | > 100 µM |  | > 100 |  | > 100 |  | > 100 µM |  | > 100 µM
14 | CC(C)(C)OC(=O)N1CCN(CCn2cc(C(F)(F)F)c3c(Cl)ncnc32)CC1 | 2.18 | 4.29 | 2.25 | 5.69 µM | 1.84 | 3.74 µM | 2.2 | 4.64 µM | 16.9 | 35.3 | 12.8 | 26.1 µM | 2.01 | 3.57 | 11.5 | 34.5 | 3.12 | 10.9 µM | 3.77 | 12.3 µM
15 | CCN(CC)CCCCNc1c2ccccc2[n+](C)c2c1[nH]c1ccccc12 | 0.0837 | 2.27 | 0.0868 | 0.26 µM | 0.473 | 7.4 µM | 0.395 | 7.47 µM | 0.385 | 4.79 | 0.473 | 1.74 µM | 0.238 | 4.46 | 0.178 | 1.1 |  | 0.28 µM | 0.255 | 1.32 µM
16 | CN(O)c1nc(N(C)O)nc(N2CCOCC2)n1 | 0.8 | > 100 | 4.12 | > 100 µM | 2.27 | > 100 µM | 11.2 | > 100 µM | 15.5 | > 100 | 4.1 | > 100 µM | 1.25 | > 100 | 8.07 | > 100 | 8.77 | > 100 µM | 3.85 | > 100 µM
17 | O=C1c2ccccc2C(O)(O)C1(O)C1(O)C(=O)c2ccccc2C1(O)O (stereo not given) |  | 37.3 |  | > 100 µM |  | > 100 µM |  | > 100 µM |  | > 100 |  | > 100 µM |  | > 100 |  | 60.3 |  | > 100 µM |  | > 100 µM
18 | COc1cc(/C=C/C(=O)c2cccc(Nc3nc(Nc4ccccc4)nc(Nc4ccccc4)n3)c2)cc(OC)c1OC | 2.05 | 20.9 | 43.8 | > 100 µM | 3.22 | > 100 µM | 3.73 | > 100 µM | 3.71 | > 87.9 | 12 | 34 µM | 11.4 | > 100 | 1.98 | > 59 | 1.36 | > 31.2 µM | 0.53 | 4.58 µM
19 | CC1CCC(NC(=O)N(CCCl)N=O)CC1 (stereo not given) | 28 | 100 | 7.87 | 29.7 µM and 53.5 µM | 22.6 | 80.7 µM and 89 µM | 17.7 | 37.4 µM and 71.5 µM | 36.6 | 112 | 18.9 | 43.8 µM and 62.3 µM | 20.8 | 65.9 |  | 88.1 |  | 64.2 µM and 68.8 µM | 12.5 | 37 µM and 103 µM
20 | COc1ccc(-c2cc(=O)[nH]c3c(OC)c4ccccc4c(OC)c23)cc1 | 0.379 |  | 0.396 | > 100 µM | 0.47 | > 91.5 µM | 0.418 | > 100 µM | 0.323 | > 100 | 0.393 |  | 0.419 | > 100 | 0.356 | > 100 | 0.409 | > 100 µM | 0.289 | > 20.2 µM
21 | COc1cc([C@@H]2OC[C@@H]3C(c4cc(OC)c5c(c4)OCO5)OC[C@@H]32)cc(OC)c1OC (stereo not given in full) |  | > 100 |  | > 100 µM |  | > 100 µM |  | > 100 µM |  | > 100 |  | > 100 µM |  | > 100 |  | > 100 |  | > 100 µM |  | > 100 µM
22 | COc1c(C)c2c(c(O)c1C/C=C(\C)CCC(=O)O)C(=O)OC2 | 0.116 | > 100 | 0.444 | > 100 µM | 0.253 | > 100 µM | 0.167 | > 100 µM | 0.374 | > 100 | 0.491 | > 100 µM | 0.0905 | > 100 | 0.663 | > 100 | 0.959 | > 100 µM | 0.518 | > 100 µM
23 | Cc1cc2c(cc1C)N(C(=O)CCl)CC(=O)N2 | 3.66 | 14.4 | 3.54 | 12.7 µM | 2.22 | 4.45 µM | 2.19 | 5.05 µM | 8.2 | 22.2 | 3.44 | 10.9 µM | 1.92 | 4.25 | 1.97 | 3.99 | 1.59 | 3.93 µM | 2.35 | 7.15 µM

Reference: PubChem BioAssay (NCI)
